Legend:
rNTS2 receptor [1] = molecular target: T1, rNTS2 receptor (Rattus norvegicus, UniProt Q63384); experiment: Competitive [125I]NT whole-cell binding assay, CHO-k1 cells overexpressing rNTS2
T1 sequence (Q63384 1-416): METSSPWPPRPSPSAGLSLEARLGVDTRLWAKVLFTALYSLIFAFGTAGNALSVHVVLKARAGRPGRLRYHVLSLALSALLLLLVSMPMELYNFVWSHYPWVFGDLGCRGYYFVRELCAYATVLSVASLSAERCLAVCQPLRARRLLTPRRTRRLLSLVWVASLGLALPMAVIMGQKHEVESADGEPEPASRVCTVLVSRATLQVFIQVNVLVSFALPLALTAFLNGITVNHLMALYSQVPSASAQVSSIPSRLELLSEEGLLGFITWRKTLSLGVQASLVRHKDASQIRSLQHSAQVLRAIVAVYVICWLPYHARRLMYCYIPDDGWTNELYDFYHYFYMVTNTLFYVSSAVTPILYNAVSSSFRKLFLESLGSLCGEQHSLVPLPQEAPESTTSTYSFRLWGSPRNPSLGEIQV

rNTS1 receptor = rNTS1 receptor (Rattus norvegicus, UniProt P20789); experiment: Calcium mobilization assay for NTS1 receptor; format: cell-based; details: for activity at NTS1: NTS1 FLIPR calcium assay
Chain of rNTS1 receptor (P20789 whole entry): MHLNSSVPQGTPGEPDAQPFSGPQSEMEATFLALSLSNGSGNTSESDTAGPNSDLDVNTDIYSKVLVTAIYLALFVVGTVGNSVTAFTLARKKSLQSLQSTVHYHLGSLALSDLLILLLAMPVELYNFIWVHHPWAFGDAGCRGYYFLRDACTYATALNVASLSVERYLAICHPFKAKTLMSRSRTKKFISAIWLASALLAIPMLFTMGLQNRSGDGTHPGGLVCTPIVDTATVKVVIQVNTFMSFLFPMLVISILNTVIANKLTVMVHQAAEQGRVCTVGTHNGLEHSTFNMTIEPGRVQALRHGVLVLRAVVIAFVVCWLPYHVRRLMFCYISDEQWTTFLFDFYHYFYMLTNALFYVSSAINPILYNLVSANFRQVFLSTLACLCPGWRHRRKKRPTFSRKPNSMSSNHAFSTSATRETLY

rNTS2 receptor [2] = molecular target: T1, rNTS2 receptor; experiment: Calcium mobilization assay for NTS2 receptor; format: cell-based; details: calcium mobilization relative to 5b

| SMILES | Ki (rNTS2 receptor [1]) | activity at NTS1 (rNTS1 receptor) | NTS2 Emax (FLIPR assay) (rNTS2 receptor [2]) | Kb (rNTS1 receptor) |
| --- | --- | --- | --- | --- |
| COc1cccc(OC)c1-c1cc(C(=O)NC2C3CC4CC(C3)CC2C4)nn1-c1ccnc2cc(Cl)ccc12 (stereo not drawn) [Compound 13, 1-(7-Chloroquinolin-4-yl)-5-(2,6-dimethoxyphenyl)-N-tricyclo[3.3.1.13,7]dec-2-yl-1H-pyrazole-3-carboxamide] | > 11000 nM | inactive |  |  |
| C[C@@H]1CN([C@H]2CC[C@](C#N)(c3ccc(F)cc3)CC2)CC[C@]1(C(=O)O)c1ccccc1 [Compound 6, levocabastine] |  | no activity at NTS1 | 16 % 5b |  |
| COc1ccccc1-c1cc(C(=O)NC2(C(=O)O)CCCCC2)nn1-c1ccc(F)cc1 [Compound 7b, 1-({[1-(4-Fluorophenyl)-5-(2-methoxyphenyl)-1H-pyrazol-3-yl]carbonyl}amino)cyclohexanecarboxylic Acid] |  | neither calcium nor binding activity at NTS1 | 7±2 % 5b |  |
| COc1cccc(OC)c1-c1cc(C(=O)NC2(C(=O)O)C3CC4CC(C3)CC2C4)nn1-c1ccnc2cc(Cl)ccc12 (stereo not drawn) [Compound 5a] |  |  | 100 % 5b | 4.7 ± 0.8 nM |
| COc1cccc(OC)c1-c1cc(C(=O)NC2(C(=O)O)C3CC4CC(C3)CC2C4)nn1-c1ccc(C(=O)N(C)CCCN(C)C)cc1C(C)C (stereo not drawn) [Compound 5b] |  |  |  | 1.5 ± 0.6 nM |
